# Reference: ChEMBL document CHEMBL1150861, “Triterpene saponins from Tupidanthus calyptratus” (J Nat Prod, 2001)
# Active and inactive are the calls of the source. The rule behind the calls is not given here.
# Tests used:
# HEK293 = assay: Antiproliferative activity against HEK293 cells […] after 72 hrs by MTT assay; format: cell-based; settings: human, hek293, 72 h
# WEHI-164 = assay: Antiproliferative activity against mouse WEHI164 cells […] after 72 hrs by MTT assay; format: functional, cell-based
# J774 = assay: Antiproliferative activity against mouse J774 cells […] after 72 hrs by MTT assay; format: functional, cell-based
smiles,measurement,setting,value
C[C@@H]1[C@H]2C3=CC[C@@H]4[C@@]5(C)C[C@@H](O)[C@H](O[C@@H]6OC[C@H](O)[C@H](O)[C@H]6O)[C@@](C)(CO)[C@@H]5CC[C@@]4(C)[C@]3(C)CC[C@@]2(C(=O)O[C@@H]2O[C@H](CO)[C@@H](O)[C@H](O)[C@H]2O)CC[C@]1(C)O,Activity,HEK293,Not Active
same,Activity,WEHI-164,inactive
same,Activity,J774,inactive
C[C@@H]1O[C@@H](OC[C@H]2O[C@@H](OC(=O)[C@]34CC[C@](C)(O)[C@H](C)[C@H]3C3=CC[C@@H]5[C@@]6(C)CC[C@H](O[C@@H]7OC[C@H](O)[C@H](O[C@@H]8OC[C@@H](O)[C@H](O)[C@H]8O)[C@H]7O)[C@@](C)(CO)[C@@H]6CC[C@@]5(C)[C@]3(C)CC4)[C@H](O)[C@@H](O)[C@@H]2O)[C@H](O)[C@H](O)[C@H]1O,Activity,HEK293,Not Active
same,Activity,WEHI-164,inactive
same,Activity,J774,inactive
C[C@@H]1[C@H]2C3=CC[C@@H]4[C@@]5(C)C[C@@H](O)[C@H](O[C@@H]6OC[C@H](O)[C@H](O[C@@H]7OC[C@@H](O)[C@H](O)[C@H]7O)[C@H]6O)[C@@](C)(CO)[C@@H]5CC[C@@]4(C)[C@]3(C)CC[C@@]2(C(=O)O[C@@H]2O[C@H](CO)[C@@H](O)[C@H](O)[C@H]2O)CC[C@]1(C)O,Activity,HEK293,Not Active
same,Activity,WEHI-164,inactive
same,Activity,J774,inactive
C[C@@H]1[C@H]2C3=CC[C@@H]4[C@@]5(C)C[C@@H](O)[C@H](O[C@@H]6OC[C@H](O)[C@H](O[C@@H]7OC[C@@H](O)[C@H](O)[C@H]7O)[C@H]6O)[C@@](C)(CO)[C@@H]5CC[C@@]4(C)[C@]3(C)CC[C@@]2(C(=O)O[C@@H]2O[C@H](CO[C@@H]3O[C@H](CO)[C@@H](O)[C@H](O)[C@H]3O)[C@@H](O)[C@H](O)[C@H]2O)CC[C@]1(C)O,Activity,HEK293,Not Active
same,Activity,WEHI-164,inactive
same,Activity,J774,inactive
